In PubChem BioAssay AID328 (DTP/NCI, 2004):
Several values for one entry are separate records, joined by “and”; a condition that tells them apart may be missing. Equal values may be shown once. Inconclusive results and toxic doses are left out.

Tested on: BDF1 mice, P388 leukemia ip, median survival T/C
Experiment: NCI In Vivo Anticancer Drug Screen. Data for tumor model P388 Leukemia (intraperitoneal) in B6D2F1 (BDF1) mice
Conditions: endpoint: median survival time, higher = longer survival
In short: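 In tumour-bearing mice, survival after compound treatment is set against the vehicle group and given as a quotient.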

[1] = dose: 6.25 mg/kg/injection, schedule: Q01DX009 (ip), vehicle: saline
[2] = dose: 12.5 mg/kg/injection, schedule: Q01DX009 (ip), vehicle: saline
[3] = dose: 100.0 mg/kg/injection, schedule: Q01DX009 (ip), vehicle: Klucel (hydroxypropylcellulose) (HPC)
[4] = dose: 200.0 mg/kg/injection, schedule: Q01DX009 (ip), vehicle: Klucel (hydroxypropylcellulose) (HPC)
[5] = dose: 400.0 mg/kg/injection, schedule: Q01DX009 (ip), vehicle: Klucel (hydroxypropylcellulose) (HPC)

CC([NH-])C(=O)O.CC([NH-])C(=O)O.[Ni+2] (centres undefined)
T/C (dose: 4.0 mg/kg/injection, schedule: Q01DX009 (ip), vehicle: saline): 109 % of control | T/C [1]: 103 % of control | T/C (dose: 8.0 mg/kg/injection, schedule: Q01DX009 (ip), vehicle: saline): 113 % of control | T/C [2]: 107 % of control | T/C (dose: 15.0 mg/kg/injection, schedule: Q04DX003 (ip), vehicle: saline): 113 % of control | T/C (dose: 16.0 mg/kg/injection, schedule: Q01DX009 (ip), vehicle: saline): 113 % of control | T/C (dose: 25.0 mg/kg/injection, schedule: Q04DX003 (ip), vehicle: saline): 118 % of control

CC[C@H](CC[C@@H](C)[C@H]1CC[C@H]2[C@@H]3CC=C4C[C@@H](OC(=O)CSC(CC(=O)O)C(=O)O)CC[C@]4(C)[C@H]3CC[C@]12C)C(C)C (some centres undefined)
T/C [3]: 109 % of control | T/C [4]: 104 % of control

CS(=O)(=O)c1nnc(-c2ccccc2)s1
T/C [3]: 94 % of control | T/C [4]: 100 % of control | T/C [5]: 103 % of control

CCC(C)C(C)(COC(N)=O)COC(N)=O (centres undefined)
T/C [3]: 90 % of control | T/C [4]: 86 % of control | T/C [5]: 95 % of control

O=C1OC(=O)C2C3C=CC(O3)C12 (centres undefined)
T/C (dose: 3.28 mg/kg/injection, schedule: Q04DX003 (ip), vehicle: saline): 100 % of control | T/C [1]: 110 % of control | T/C (dose: 6.56 mg/kg/injection, schedule: Q04DX003 (ip), vehicle: saline): 100 % of control | T/C [2]: 104 % of control and 105 % of control | T/C (dose: 13.12 mg/kg/injection, schedule: Q04DX003 (ip), vehicle: saline): 100 % of control | T/C (dose: 25.0 mg/kg/injection, schedule: Q01DX009 (ip), vehicle: saline): 90 % of control and 104 % of control | T/C (dose: 35.0 mg/kg/injection, schedule: Q01DX009 (ip), vehicle: saline): 104 % of control

COc1cccc2c1C(=O)c1c(O)c3c(c(O)c1C2=O)C[C@@](O)(C(O)O)C[C@@H]3OC1CC(N)C(O)C(C)O1 (some centres undefined)
T/C (dose: 4.0 mg/kg/injection, schedule: Q01DX009 (ip), vehicle: water): 169 % of control | T/C (dose: 8.0 mg/kg/injection, schedule: Q01DX009 (ip), vehicle: water): 87 % of control | T/C (dose: 16.0 mg/kg/injection, schedule: Q01DX009 (ip), vehicle: water): 87 % of control

Cc1ccccc1C[P+](c1ccccc1)(c1ccccc1)c1ccccc1
T/C (dose: 0.39 mg/kg/injection, schedule: Q01DX009 (ip), vehicle: Klucel (hydroxypropylcellulose) (HPC)): 100 % of control | T/C (dose: 0.39 mg/kg/injection, schedule: Q04DX003 (ip), vehicle: Klucel (hydroxypropylcellulose) (HPC)): 100 % of control | T/C (dose: 0.78 mg/kg/injection, schedule: Q01DX009 (ip), vehicle: Klucel (hydroxypropylcellulose) (HPC)): 108 % of control | T/C (dose: 0.78 mg/kg/injection, schedule: Q04DX003 (ip), vehicle: Klucel (hydroxypropylcellulose) (HPC)): 122 % of control | T/C (dose: 1.56 mg/kg/injection, schedule: Q01DX009 (ip), vehicle: Klucel (hydroxypropylcellulose) (HPC)): 112 % of control | T/C (dose: 1.56 mg/kg/injection, schedule: Q04DX003 (ip), vehicle: Klucel (hydroxypropylcellulose) (HPC)): 113 % of control | T/C (dose: 3.12 mg/kg/injection, schedule: Q01DX009 (ip), vehicle: saline): 150 % of control | T/C (dose: 3.5 mg/kg/injection, schedule: Q04DX003 (ip), vehicle: Klucel (hydroxypropylcellulose) (HPC)): 104 % of control | T/C (dose: 13.2 mg/kg/injection, schedule: Q04DX003 (ip), vehicle: saline with Tween-80): 113 % of control | T/C (dose: 30.0 mg/kg/injection, schedule: Q04DX003 (ip), vehicle: saline with Tween-80): 104 % of control

N/N=C(/c1ccccc1)c1nc(-c2ccccc2)n[nH]c1=O
T/C (dose: 50.0 mg/kg/injection, schedule: Q01DX009 (ip), vehicle: saline with Tween-80): 111 % of control | T/C (dose: 100.0 mg/kg/injection, schedule: Q01DX009 (ip), vehicle: saline with Tween-80): 106 % of control | T/C (dose: 200.0 mg/kg/injection, schedule: Q01DX009 (ip), vehicle: saline with Tween-80): 112 % of control

COc1cc(O)c2c(c1)C(=O)c1cc3c(c(O)c1C2=O)C(OC1OC(C)C(O)C(O)C1OC)C(OC)C(C)(O)C3=O (centres undefined)
T/C (dose: 25.9 mg/kg/injection, schedule: Q01DX009 (ip), vehicle: Klucel (hydroxypropylcellulose) (HPC)): 116 % of control | T/C (dose: 37.5 mg/kg/injection, schedule: Q01DX010 (ip), vehicle: carboxymethylcellulose (CMC)): 150 % of control | T/C (dose: 37.5 mg/kg/injection, schedule: Q01DX010 (ip), vehicle: saline): 111 % of control and 115 % of control | T/C (dose: 43.2 mg/kg/injection, schedule: Q01DX009 (ip), vehicle: Klucel (hydroxypropylcellulose) (HPC)): 121 % of control | T/C (dose: 75.0 mg/kg/injection, schedule: Q01DX010 (ip), vehicle: carboxymethylcellulose (CMC)): 165 % of control | T/C (dose: 75.0 mg/kg/injection, schedule: Q01DX010 (ip), vehicle: saline): 120 % of control and 122 % of control | T/C (dose: 108.0 mg/kg/injection, schedule: Q04DX003 (ip), vehicle: Klucel (hydroxypropylcellulose) (HPC)): 114 % of control | T/C (dose: 120.0 mg/kg/injection, schedule: Q01DX009 (ip), vehicle: Klucel (hydroxypropylcellulose) (HPC)): 106 % of control | T/C (dose: 180.0 mg/kg/injection, schedule: Q04DX003 (ip), vehicle: Klucel (hydroxypropylcellulose) (HPC)): 110 % of control | T/C (dose: 300.0 mg/kg/injection, schedule: Q04DX003 (ip), vehicle: Klucel (hydroxypropylcellulose) (HPC)): 99 % of control | T/C (dose: 500.0 mg/kg/injection, schedule: Q04DX003 (ip), vehicle: Klucel (hydroxypropylcellulose) (HPC)): 97 % of control
